According to patent US20180298024A1, “CORTISTATIN ANALOGS AND USES THEREOF” (President and Fellows of Harvard College, priority 2015, published 2018):
“And” between values parts separate entries of the source, which are not always exact repeats. Identical values can stand only once.

Assays:
[1] = biological target: hERG potassium channel (Homo sapiens, UniProt Q12809); test: in vitro; conditions: human
Description: (§1) The in vitro effects of compounds A, B, C, D, E, and F on the hERG (human ether-à-go-go-related gene) potassium channel current (a surrogate for IKr, the rapidly activating, delayed rectifier cardiac potassium current) expressed in mammalian cells were evaluated at room temperature using the QPatch HT (Sophion Bioscience A/S, Denmark), an automatic parallel patch clamp system. The test articles were evaluated at 1 μM, 3 μM, […] and 30 μM. Each test article concentration was tested in at least three cells. The duration of exposure to each test article concentration was a minimum of 3 minutes.

[2] = biological target: hERG (human ether-à-go-go-related gene) potassium channel (Homo sapiens, UniProt Q12809); test: cell-based; conditions: for IC50: hERG IC50, QPatch HT, room temperature
hERG (human ether-à-go-go-related gene) potassium channel, sequence (Q12809 whole entry): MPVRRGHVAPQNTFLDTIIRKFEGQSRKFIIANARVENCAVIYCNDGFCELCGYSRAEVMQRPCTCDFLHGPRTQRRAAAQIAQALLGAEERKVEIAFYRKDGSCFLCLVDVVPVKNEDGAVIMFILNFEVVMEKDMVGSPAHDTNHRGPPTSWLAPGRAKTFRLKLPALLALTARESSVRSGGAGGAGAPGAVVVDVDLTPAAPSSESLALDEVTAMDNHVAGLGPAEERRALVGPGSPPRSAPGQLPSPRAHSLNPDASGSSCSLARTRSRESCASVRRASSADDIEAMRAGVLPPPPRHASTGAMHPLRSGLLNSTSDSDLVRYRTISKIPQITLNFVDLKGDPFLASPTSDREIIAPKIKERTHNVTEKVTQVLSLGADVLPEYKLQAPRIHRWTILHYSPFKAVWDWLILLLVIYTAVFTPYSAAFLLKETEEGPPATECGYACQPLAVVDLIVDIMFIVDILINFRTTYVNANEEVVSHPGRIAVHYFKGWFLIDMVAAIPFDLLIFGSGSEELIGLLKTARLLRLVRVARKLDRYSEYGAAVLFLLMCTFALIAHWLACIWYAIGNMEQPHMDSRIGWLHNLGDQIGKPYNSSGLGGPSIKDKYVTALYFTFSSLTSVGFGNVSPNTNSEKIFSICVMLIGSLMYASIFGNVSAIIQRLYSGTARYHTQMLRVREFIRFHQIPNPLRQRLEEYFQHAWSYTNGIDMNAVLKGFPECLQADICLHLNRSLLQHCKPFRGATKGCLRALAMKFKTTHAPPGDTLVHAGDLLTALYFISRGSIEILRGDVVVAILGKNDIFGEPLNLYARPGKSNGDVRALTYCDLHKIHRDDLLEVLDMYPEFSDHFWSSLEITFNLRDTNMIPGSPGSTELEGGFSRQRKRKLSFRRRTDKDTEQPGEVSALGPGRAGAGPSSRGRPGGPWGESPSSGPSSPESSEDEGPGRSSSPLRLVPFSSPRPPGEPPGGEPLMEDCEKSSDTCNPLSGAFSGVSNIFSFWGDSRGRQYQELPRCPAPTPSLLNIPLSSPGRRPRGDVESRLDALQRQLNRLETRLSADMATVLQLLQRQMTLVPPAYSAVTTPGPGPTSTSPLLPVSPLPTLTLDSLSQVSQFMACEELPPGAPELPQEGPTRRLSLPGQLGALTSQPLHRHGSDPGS
Description: as §1

[3] = system: SKNO-1; test: Half-maximal growth inhibition (GI50), SKNO-1; type: cell-based; conditions: Homo sapiens, 240 h, AML, M2, RUNX1-RUNX1T1, read-out: GI50 (nM), day 10
Description: Compounds A, B, C, D, and F were tested against various cell lines to probe their broad utility against cancer. Cortistatin A (CA) was also tested against the cell lines in a head to head fashion.

[4] = biological target: CDK8 (Homo sapiens, UniProt P49336); test: Western blot study of CDK8 inhibition; type: cell-based; conditions: decreased staining results from inhibition of the target
CDK8, sequence (P49336 whole entry): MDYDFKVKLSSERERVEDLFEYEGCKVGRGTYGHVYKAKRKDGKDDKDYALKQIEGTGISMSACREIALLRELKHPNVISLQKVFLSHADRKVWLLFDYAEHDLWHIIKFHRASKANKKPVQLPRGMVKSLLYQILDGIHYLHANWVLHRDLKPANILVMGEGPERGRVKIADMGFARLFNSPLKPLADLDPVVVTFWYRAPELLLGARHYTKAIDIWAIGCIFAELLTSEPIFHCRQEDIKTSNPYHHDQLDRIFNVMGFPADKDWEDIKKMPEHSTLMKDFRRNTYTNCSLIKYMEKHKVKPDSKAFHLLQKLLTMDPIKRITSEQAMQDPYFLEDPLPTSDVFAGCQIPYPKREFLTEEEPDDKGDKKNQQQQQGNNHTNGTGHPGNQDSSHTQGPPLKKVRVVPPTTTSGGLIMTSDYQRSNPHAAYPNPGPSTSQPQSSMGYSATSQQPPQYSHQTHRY
CDK8, sequence (P24863 whole entry partner): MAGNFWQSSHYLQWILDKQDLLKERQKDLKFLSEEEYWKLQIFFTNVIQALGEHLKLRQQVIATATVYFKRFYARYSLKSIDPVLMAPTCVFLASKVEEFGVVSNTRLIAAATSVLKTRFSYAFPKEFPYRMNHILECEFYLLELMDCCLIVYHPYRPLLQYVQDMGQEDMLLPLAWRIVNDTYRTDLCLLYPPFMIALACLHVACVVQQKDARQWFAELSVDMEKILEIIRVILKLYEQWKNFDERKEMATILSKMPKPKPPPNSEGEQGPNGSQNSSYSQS
Description: CDK8 inhibition in cells as measured by inhibition of Interferon-gamma (IFNγ)-stimulated STAT1-S727 phosphorylation. The compounds were provided as 200 μl of 1×10^−03 M/100% stock solutions in vials. The vials arrived in good condition and 2×100 μl each of the stock solutions were transferred into wells A2 to H2 of a 96 well “master plate” (barcoded “11273-UNH-01”), according to Table 12.
The dose response curves presented above were corroborated with western blot studies.

[5] = biological target: T1, CDK8/Cyclin C (Homo sapiens, UniProt P49336); test: 33PanQinase radiometric kinase assay, CDK8/Cyclin C; type: biochemical; conditions: read-out: percent inhibition of CDK8/Cyclin C
T1 construct: purchased ProQinase; host or cells: Sf9 insect cells or E. coli
T1 sequence (P49336 whole entry): as the sequence (P49336 whole entry) above
T1 sequence (P24863 whole entry partner): as the sequence (P24863 whole entry partner) above
Description: A radiometric protein kinase assay (33PanQinase Activity Assay) was used for measuring the kinase activity of the 320 protein kinases. All kinase assays were performed in 96-well FlashPlates™ from Perkin Elmer (Boston, Mass., USA) in a 50 μl reaction volume. The reaction cocktail was pipetted in 4 steps in the following order: • 1. 10 μl of non-radioactive ATP solution (in H2O) • 2. 25 μl of assay buffer/[γ-33P]-ATP mixture • 3. 5 μl of test sample in 10% DMSO • 4. 10 μl of enzyme/substrate mixture
All PKC assays (except the PKC-mu and the PKC-nu assay) additionally contained 1 mM CaCl2, 4 mM EDTA, 5 μg/ml phosphatidylserine and 1 μg/ml 1,2-dioleyl-glycerol.
The CAMKID, CAMK2A, CAMK2B, CAMK2D, CAMK4, CAMKK1, CAMKK2, DAPK2, EEF2K, MYLK, MYLK2 and MYLK3 assays additionally contained 1 μg/ml Calmodulin and 0.5 mM CaCl2). The PRKG1 and PRKG2 assays additionally contained 1 μM cGMP. The DNA-PK assay additionally contained 2.5 μg/ml DNA. The protein kinase reaction cocktails were incubated at 30° C. for 60 minutes. The reaction was stopped with 50 μl of 2% (v/v) H3PO4, plates were aspirated and washed two times with 200 μl 0.9% (w/v) NaCl. Incorporation of 33Pi (counting of “cpm”) was determined with a microplate scintillation counter (Microbeta, Wallac). All protein kinase assays were performed with a BeckmanCoulter Biomek 2000/SL robotic system.
All protein kinases provided by ProQinase were expressed in Sf9 insect cells or in E. coli as recombinant GST-fusion proteins or His-tagged proteins, either as full-length or enzymatically active fragments. All kinases were produced from human cDNAs and purified by either GSHaffinity chromatography or immobilized metal. Affinity tags were removed from a number of kinases during purification. The purity of the protein kinases was examined by SDSPAGE/Coomassie staining, the identity was checked by mass spectroscopy.
For each kinase, the median value of the cpm of three wells was defined as “low control” (n=3). This value reflects unspecific binding of radioactivity to the plate in the absence of a protein kinase but in the presence of the substrate. Additionally, for each kinase the median value of the cpm of three other wells was taken as the “high control”, i.e. full activity in the absence of any inhibitor (n=3). The difference between high and low control of each enzyme was taken as 100% activity. As part of the data evaluation the low control of each kinase was subtracted from the high control value as well as from their corresponding “compounds values”. The residual activity (in %) for each compounds well was calculated by using the following formula:
Res. Activity (%)=100×[(signal of compounds−low control)/(high control−low control)]

[6] = TurboSol solubility evaluation in physiological saline; type: physicochemical; conditions: HB-PS+0.3% DMSO
[7] = system: off-targets (Panlabs); test: Panlab off-target assay panel; type: binding; conditions: 10 μM; for number of targets with ≥75% inhibition: Safety Panel = 28 binding assays (Eurofins Panlabs)
Description: Compounds A, B, C, and D were tested in Panlab assays to evaluate potential off-target activity using standard assay kits. Methods employed in these studies have been adapted from the scientific literature to maximize reliability and reproducibility. Reference standards were run as an integral part of each assay to ensure the validity of the results obtained.
IC50 values were determined by a non-linear, least squares regression analysis using MathIQ™ (ID Business Solutions Ltd., UK). Where inhibition constants (Ki) are presented, the Ki values were calculated using the equation of Cheng and Prusoff (Cheng, Y., Prusoff, W. H., Biochem. Pharmacol. 22:3099-3108, 1973) using the observed IC50 of the tested compound, the concentration of radioligand employed in the assay, and the historical values for the KD of the ligand (obtained experimentally at Eurofins Panlabs, Inc.). Where presented, the Hill coefficient (nH), defining the slope of the competitive binding curve, was calculated using MathIQ™.

[8] = Individual Data Points (% Inhibition), hERG

hERG potassium channel, sequence (Q12809 whole entry): as the sequence (Q12809 whole entry) above

Structure (SMILES)	inhibition at 10 µM [1, 8] [%]	inhibition at 1 µM ([1]; Mean % hERG Inhibition) [%]	inhibition at 3 µM ([1]; Mean % hERG Inhibition) [%]	inhibition at 10 µM ([1]; Mean % hERG Inhibition) [%]	inhibition at 30 µM ([1]; Mean % hERG Inhibition) [%]	IC50 [2]	GI50 [3] [nM]	inhibition of CDK8 in Western blot [4]	inhibition at 1 µM [5] [%]	Average LSU (×1000) ([6]; 1 μM)	Average LSU (×1000) ([6]; 3 μM)	Average LSU (×1000) ([6]; 10 μM)	Average LSU (×1000) ([6]; 30 μM)	solubility in the TurboSol assay [6]	number of targets with ≥75% inhibition [7]	inhibition at 1 µM [1, 8] [%]	inhibition at 3 µM [1, 8] [%]	inhibition at 30 µM [1, 8] [%]	fold less hERG activity than Compound E ([2]; human)	number of targets with greater than 75% inhibition ([7]; subset of 30 Panlab assays)	further results
C[C@]12CC=C3C=C4CC[C@@H](O)C[C@]45CC[C@]3(O5)[C@@H]1CC[C@@H]2c1ccc2ccncc2c1 [Compound A, (3S,3aR,9R,10aR,12aS,12bR)-3-(isoquinolin-7-yl)-3a-methyl-1,2,3,3a,4,7,8,9,10,11,12,12b-dodecahydro-10a,12a-epoxybenzo[4,5]cyclohepta[1,2-e]inden-9-ol]	17.6	4	9	19.6	43.7	> 30 µM	2	dose dependent response	> 50	5.8 LSU (×1000)	5.1 LSU (×1000)	9.0 LSU (×1000)	41.0 LSU (×1000)	slightly insoluble at concentrations of 10 μM and 30 μM	0						Mean % hERG Inhibition ([2]; human, 3 µM): 9.2%; number of targets with greater than 50% inhibition ([7]; over 100 Panlab assays): 8
C[C@]12CC=C3C=C4CC[C@@H](N5CC[C@@H](N)C5)C[C@]45CC[C@]3(O5)[C@@H]1CC[C@@H]2c1ccc2ccncc2c1 [Compound B]		4.1	18.9	44.5	82.7	10.7 µM	3	dose dependent response	> 50	2.2 LSU (×1000)	3.2 LSU (×1000)	4.5 LSU (×1000)	8.6 LSU (×1000)	slightly insoluble at 30 μM concentrations	8	5.4	17.1	89.4	10-100 fold		number of targets with greater than 50% inhibition ([7]; subset of 30 Panlab assays): 8
C[C@]12CC=C3C=C4CC[C@@H](N5CC(N)C5)C[C@]45CC[C@]3(O5)[C@@H]1CC[C@@H]2c1ccc2ccncc2c1 [Compound C]	45.8	5.8	17.1	49.8	75.5	10.9 µM	3	dose dependent response	> 50	2.8 LSU (×1000)	3.5 LSU (×1000)	4.9 LSU (×1000)	13.0 LSU (×1000)	slightly insoluble at 30 μM concentrations	4		12.7	66.9		4	
C[C@]12CC=C3C=C4CC[C@@H](N5C[C@H](O)[C@@H](O)C5)C[C@]45CC[C@]3(O5)[C@@H]1CC[C@@H]2c1ccc2ccncc2c1 [Compound D]	71.6	8	27.3	63.9	91.3	6.28 µM and 6.3 µM	< 1	dose dependent response	> 50	4.7 LSU (×1000)	6.4 LSU (×1000)	7.0 LSU (×1000)	16.6 LSU (×1000)	slightly insoluble at 30 μM concentrations	3	11.5	25.1	97.9	10-100 fold	3	activity in the hERG assay [2]: single digit micromolar activity
